Experimental data as given in patent publication US20240016894A1, “METHODS AND MATERIALS FOR AMELIORATING CREATINE DEFICIENCY DISORDERS” (The Regents of the University of California, priority 2022, published 2024).

System: Gamt−/− mice
Assay: (18F)-FDG PET brain glucose uptake
Type: in vivo, mouse
Conditions: Gamt-deficient mice; sequence regular chow (5.24±0.76), oral creatine supplementation, then AAV (regular chow only)
Text: Considering the importance of the creatine/phosphocreatine shuttle to cells with high-energy expenditures, we examined the uptake of glucose to the brain in Gamt-deficient mice. Fluorodeoxyglucose (18(F)-FDG)-positron-emission tomography (PET) is a well-established non-invasive imaging tool for monitoring changes in cerebral brain glucose metabolism in vivo. To examine restoration of hepatic Gamt and its effect as a treatment strategy in GAMT deficiency, we sought to examine the brain of this preclinical model. By measuring cerebral glucose metabolism with (18F)-FDG-PET we can detect neuronal dysfunction in vivo as brain glucose metabolism is determined by synaptic activity mainly in order to restore membrane potentials (26). To semi-quantitate tissue activity, we determined the activity divided by the decay-corrected activity injected into the mouse; this ratio is defined as the percent-injected dose per cubic centimeter in tissue (% ID/cc). […]
We evaluated if there was a substantial improvement in brain metabolism with restoration of GAMT activity in hepatocytes with a gene therapy approach and compared this to present day therapy with oral creatine supplementation. […]
Animals were anesthetized with 1.5% vaporized isoflurane, and injected with (18F)-FDG via tail vein. […] Co-registered PET/CT data were analyzed and quantified using AMIDE software. […]

CN(CC(=O)O)C(=N)N [creatine]
Brain (18F)-FDG uptake, each mouse its own control: 5.26±1.10 % ID/cc
